Values after ≈ are worked out from the molar mass of the structure shown.
What was measured:
[1] = Solubility of X842 in water; assay type: physicochemical
Text: The solubility of X842 is very low. […] This low solubility is problematic for solid oral formulations, and especially for solid immediate release formulations where the active ingredient should dissolve in only a short time period.

[2] = test system: gastric acid production; experiment: Clinical Phase I study of X842: intragastric pH / gastric acid control; assay type: in vivo, human
Description: (§1) X842 is a prodrug of linaprazan, which was disclosed in WO 99/55706 and previously studied in Phase I and II studies. […] A clinical Phase I study has shown that administration of a single dose of X842 can maintain the intragastric acidity above pH 4 for 24 hours. X842 is therefore tailored for patients with severe erosive gastroesophageal reflux disease (eGERD).
(§2) It is estimated that this requires a minimal plasma concentration (Cmin) of linaprazan of at least about 240 nmol/L after 22 hours. At such doses, a once daily administration of the formulation would be sufficient. Therefore, in another embodiment, the invention relates to a formulation as disclosed herein, wherein the formulation provides a Cmin of linaprazan in a human of at least about 240 nmol/L after 22 hours following administration of the oral formulation to said human. In a preferred embodiment, the invention relates to a formulation as disclosed herein, wherein a unit dose of the formulation provides a Cmin of linaprazan in a human of at least about 240 nmol/L after 22 hours following administration of the oral formulation to said human.

[3] = clinical; set-up: species or system human; details: in vivo
Description: as §1, §2

[4] = test system: gastric acid production; details: Phase I and II studies; cited from earlier work

SMILES	solubility in water ([1]; pH 6.8)	solubility ([1]; water, simulated gastric fluid, pH 1.0)	control of gastric acid production ([2]; compared to linaprazan)	time intragastric acidity is maintained above pH 4 ([2]; single dose, clinical Phase I)	half-life in the body ([3]; human)	metabolism after absorption into the blood stream [3]	plasma concentration of X842 [3]	concentration at 22 h ([3]; human)	duration of acid inhibition [4]	elimination from the body [4]	onset of action / effect at first dose [4]	tolerability [4]
Cc1cccc(C)c1CNc1cc(C(=O)NCCOC(=O)CCCC(=O)O)cn2c(C)c(C)nc12 [Example X842, 5-{2[({8-[(2,6-dimethylbenzyl)amino]-2,3-dimethylimidazo[1,2-a]pyridine-6-yl}carbonyl)-amino]ethoxy}-5-oxopentanoic acid]	practically insoluble	~113 µg/mL (≈ 235 µM)	total control of the gastric acid production for a longer time	24 hours	longer half-life	quickly metabolized into linaprazan	only very low and difficult to determine	–	–	–	–	–
Cc1cccc(C)c1CNc1cc(C(=O)NCCO)cn2c(C)c(C)nc12 [linaprazan]	–	–	–	–	–	–	–	≥ 240 nM	too short duration of acid inhibition	quickly eliminated from the body	fast onset of action and full effect at first dose	well tolerated

Reference: patent US20220362223A1, “ORAL FORMULATION OF X842” (Cinclus Pharma Holding AB, priority 2019, published 2022)
